{
  "source": "patent US20250311727A1",
  "about": "“SUBSTITUTED 2-AMINOAZINES AND SALTS THEREOF, AND USE THEREOF AS HERBICIDAL ACTIVE SUBSTANCES” (BAYER AKTIENGESELLSCHAFT, priority 2022, published 2025)",
  "format_in_all_cases": "in vivo",
  "key": {"Amaranthus retroflexus [1]": {"test_system": "Amaranthus retroflexus", "test": "Post-emergence herbicidal efficacy at 80 g/ha, AMARE", "conditions": "rated visually after about 3 weeks vs untreated controls, 100% = plants have died", "text": "(§1) Unwanted plants/weeds: • ABUTH: Abutilon theophrasti • ALOMY: Alopecurus myosuroides • AMARE: Amaranthus retroflexus • DIGSA: Digitaria sanguinalis • ECHCG: Echinochloa crus-galli • KCHSC: Kochia scoparia • LOLRI: Lolium rigidum • MATIN: Matricaria inodora • POAAN: Poa annua • POLCO: Polygonum convolvulus • SETVI: Setaria viridis • STEME: Stellaria media • VERPE: Veronica persica • VIOTR: Viola tricolor A. Post-Emergence Herbicidal Efficacy at 320 g/ha\n(§2) Seeds of monocotyledonous and dicotyledonous weeds and crop plants were placed in sandy loam in plastic or organic planting pots, covered with soil and cultivated in a greenhouse under controlled growth conditions. 2 to 3 weeks after sowing, the test plants were treated at the one-leaf stage. The compounds of the invention, formulated in the form of wettable powders (WP) or as emulsion concentrates (EC), were then sprayed onto the green parts of the plants as aqueous suspension or emulsion with addition of 0.5% additive at a water application rate of 600 l/ha (converted). After the test plants had been kept in the greenhouse under optimum growth conditions for about 3 weeks, the activity of the preparations was rated visually in comparison to untreated controls. For example, 100% activity=the plants have died, 0% activity=like control plants.\n(§3) Tables B1 to B11 below show the effects of selected compounds of the general formula (I) according to Table 1 on various harmful plants and an application rate corresponding to 80 g/ha, which were obtained by the experimental procedure mentioned above."}, "Echinochloa crus-galli [2]": {"test_system": "Echinochloa crus-galli", "test": "Post-emergence herbicidal efficacy at 80 g/ha, ECHCG", "conditions": "rated visually after about 3 weeks vs untreated controls, 100% = plants have died", "text": "as §1, §2, §3"}, "Veronica persica [3]": {"test_system": "Veronica persica", "test": "Post-emergence herbicidal efficacy at 80 g/ha, VERPE", "conditions": "rated visually after about 3 weeks vs untreated controls, 100% = plants have died", "text": "as §1, §2, §3"}, "Viola tricolor [4]": {"test_system": "Viola tricolor", "test": "Post-emergence herbicidal efficacy at 80 g/ha, VIOTR", "conditions": "rated visually after about 3 weeks vs untreated controls, 100% = plants have died", "text": "as §1, §2, §3"}, "Abutilon theophrasti": {"test_system": "Abutilon theophrasti", "test": "Pre-emergence herbicide efficacy at 80 g/ha, ABUTH", "conditions": "scored visually after about 3 weeks vs untreated controls, 100% = plants have died", "text": "as §1\n(§4) Seeds of monocotyledonous and dicotyledonous weed plants and crop plants were placed in plastic or organic planting pots and covered with soil. The compounds of the invention, formulated in the form of wettable powders (WP) or as emulsion concentrates (EC), were then applied to the surface of the covering soil as aqueous suspension or emulsion with addition of 0.5% additive at a water application rate equivalent to 600 l/ha. After the treatment, the pots were placed in a greenhouse and kept under good growth conditions for the test plants. After about 3 weeks, the efficacy of the preparations was scored visually in comparison with untreated controls as percentages. For example, 100% activity=the plants have died, 0% activity=like control plants.\n(§5) Tables D1 to D12 below show the effects of selected compounds of the general formula (I) according to Table 1 on various harmful plants and an application rate corresponding to 80 g/ha, which were obtained by the experimental procedure mentioned above."}, "Amaranthus retroflexus [5]": {"test_system": "Amaranthus retroflexus", "test": "Pre-emergence herbicide efficacy at 80 g/ha, AMARE", "conditions": "scored visually after about 3 weeks vs untreated controls, 100% = plants have died", "text": "as §1, §4, §5"}, "Digitaria sanguinalis": {"test_system": "Digitaria sanguinalis", "test": "Pre-emergence herbicide efficacy at 80 g/ha, DIGSA", "conditions": "scored visually after about 3 weeks vs untreated controls, 100% = plants have died", "text": "as §1, §4, §5"}, "Echinochloa crus-galli [6]": {"test_system": "Echinochloa crus-galli", "test": "Pre-emergence herbicide efficacy at 80 g/ha, ECHCG", "conditions": "scored visually after about 3 weeks vs untreated controls, 100% = plants have died", "text": "as §1, §4, §5"}, "Kochia scoparia": {"test_system": "Kochia scoparia", "test": "Pre-emergence herbicide efficacy at 80 g/ha, KCHSC", "conditions": "scored visually after about 3 weeks vs untreated controls, 100% = plants have died", "text": "as §1, §4, §5"}, "Matricaria inodora": {"test_system": "Matricaria inodora", "test": "Pre-emergence herbicide efficacy at 80 g/ha, MATIN", "conditions": "scored visually after about 3 weeks vs untreated controls, 100% = plants have died", "text": "as §1, §4, §5"}, "Polygonum convolvulus": {"test_system": "Polygonum convolvulus", "test": "Pre-emergence herbicide efficacy at 80 g/ha, POLCO", "conditions": "scored visually after about 3 weeks vs untreated controls, 100% = plants have died", "text": "as §1, §4, §5"}, "Veronica persica [7]": {"test_system": "Veronica persica", "test": "Pre-emergence herbicide efficacy at 80 g/ha, VERPE", "text": "as §1, §4, §5"}, "Viola tricolor [8]": {"test_system": "Viola tricolor", "test": "Pre-emergence herbicide efficacy at 80 g/ha, VIOTR", "text": "as §1, §4, §5"}},
  "data": [
    {"smiles": "Cc1cnc(Nc2cccc(C#N)c2-n2cc(C(F)(F)F)cn2)nc1", "note": "[Example 1-39]", "values": [
      {"measurement": "Post-emergence efficacy at 80 g/ha against AMARE in %", "setting": "Amaranthus retroflexus [1]", "value": 80, "unit": "%"},
      {"measurement": "Post-emergence efficacy at 80 g/ha against ECHCG in %", "setting": "Echinochloa crus-galli [2]", "value": 80, "unit": "%"},
      {"measurement": "Post-emergence efficacy at 80 g/ha against VERPE in %", "setting": "Veronica persica [3]", "value": 90, "unit": "%"},
      {"measurement": "Post-emergence efficacy at 80 g/ha against VIOTR in %", "setting": "Viola tricolor [4]", "value": 80, "unit": "%"},
      {"measurement": "Pre-emergence efficacy at 80 g/ha against ABUTH in %", "setting": "Abutilon theophrasti", "value": 100, "unit": "%"},
      {"measurement": "Pre-emergence efficacy at 80 g/ha against AMARE in %", "setting": "Amaranthus retroflexus [5]", "value": 100, "unit": "%"},
      {"measurement": "Pre-emergence efficacy at 80 g/ha against DIGSA in %", "setting": "Digitaria sanguinalis", "value": 100, "unit": "%"},
      {"measurement": "Pre-emergence efficacy at 80 g/ha against ECHCG in %", "setting": "Echinochloa crus-galli [6]", "value": 100, "unit": "%"},
      {"measurement": "Pre-emergence efficacy at 80 g/ha against KCHSC in %", "setting": "Kochia scoparia", "value": 90, "unit": "%"},
      {"measurement": "Pre-emergence efficacy at 80 g/ha against MATIN in %", "setting": "Matricaria inodora", "value": 100, "unit": "%"},
      {"measurement": "Pre-emergence efficacy at 80 g/ha against POLCO in %", "setting": "Polygonum convolvulus", "value": 90, "unit": "%"},
      {"measurement": "Pre-emergence efficacy against VERPE", "setting": "Veronica persica [7]", "value": 90, "unit": "%"},
      {"measurement": "Pre-emergence efficacy against VIOTR", "setting": "Viola tricolor [8]", "value": 100, "unit": "%"}
    ]}
  ]
}
